Experimental data: patent US20220144850A1, “INDOLO HEPTAMYL OXIME ANALOGUE AS PARP INHIBITOR” (Chia Tai Tianqing Pharmaceutical Group Co., Ltd., priority 2019, published 2022)
pIC50: −log10 of the molar value.

Columns and labels:
[1] = Metabolic stability in liver microsomes, mouse; format: in vitro ADME; conditions: Mouse liver microsomes 0.5 mg/mL, 1 μM compound, NADPH, 37° C.
Protocol: Experimental Example 7. Metabolic Stability in Liver Microsomes
Experimental objective: to test the metabolic stability of test compounds in liver microsomes of three species.
Experimental method: 1 μM test compound and a microsome (0.5 mg/mL) were incubated at 37° C. in the presence of an NADPH regeneration system; positive controls were testosterone (3A4 substrate), propylamine propiophenone (2D6 substrate) and diclofenac (2C9 substrate), and also at 37° C., a positive control was incubated with a microsome (0.5 mg/mL) in the presence of an NADPH regenerating system; the reaction was stopped by direct mixing of the sample with cold acetonitrile containing an internal standard at various time points (0, 5, 10, 20, 30 and 60 min); the compound and microsome were incubated for 60 min in the absence of an NADPH regenerating system; one parallel (n=1) was set at each time point; the samples were analyzed by LC/MS/MS; the concentration of the compound was characterized by the ratio of the analyte peak area to the internal standard peak area.

[2] = target: T1, PARP1 (Homo sapiens, UniProt P09874); assay: PARP-1 enzymatic experiment (HT Universal Chemiluminescent PARP Assay kit); format: biochemical; conditions: chemiluminescence
T1 construct: purchased TREVIGEN
T1 sequence (P09874 whole entry): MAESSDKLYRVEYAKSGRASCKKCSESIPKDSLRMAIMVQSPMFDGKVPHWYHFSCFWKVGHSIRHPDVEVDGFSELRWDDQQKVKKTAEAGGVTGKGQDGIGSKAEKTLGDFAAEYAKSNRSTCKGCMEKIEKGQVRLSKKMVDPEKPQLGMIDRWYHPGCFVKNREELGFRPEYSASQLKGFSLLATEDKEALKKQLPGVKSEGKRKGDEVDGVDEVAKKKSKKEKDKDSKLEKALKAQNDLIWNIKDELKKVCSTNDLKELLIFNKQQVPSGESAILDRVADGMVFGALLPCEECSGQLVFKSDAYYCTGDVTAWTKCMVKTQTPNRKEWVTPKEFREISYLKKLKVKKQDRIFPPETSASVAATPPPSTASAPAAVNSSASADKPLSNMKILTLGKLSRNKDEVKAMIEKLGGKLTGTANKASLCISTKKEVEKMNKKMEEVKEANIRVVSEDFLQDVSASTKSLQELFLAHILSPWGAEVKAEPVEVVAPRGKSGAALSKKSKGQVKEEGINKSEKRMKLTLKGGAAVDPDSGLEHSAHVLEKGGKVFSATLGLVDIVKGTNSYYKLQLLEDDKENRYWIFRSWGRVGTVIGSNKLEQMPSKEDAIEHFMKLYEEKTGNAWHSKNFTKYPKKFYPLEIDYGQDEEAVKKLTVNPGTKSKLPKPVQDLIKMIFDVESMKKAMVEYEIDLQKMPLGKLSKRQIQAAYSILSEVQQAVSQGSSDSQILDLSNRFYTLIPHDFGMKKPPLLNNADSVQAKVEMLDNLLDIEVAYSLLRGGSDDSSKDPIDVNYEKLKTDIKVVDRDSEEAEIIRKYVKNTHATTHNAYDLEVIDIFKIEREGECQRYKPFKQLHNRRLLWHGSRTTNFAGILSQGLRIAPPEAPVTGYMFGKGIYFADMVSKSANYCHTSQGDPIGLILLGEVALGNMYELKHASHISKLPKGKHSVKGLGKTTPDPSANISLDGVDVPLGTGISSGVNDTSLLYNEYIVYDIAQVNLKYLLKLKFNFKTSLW
Protocol: Experimental Example 1: PARP-1 Enzymatic Experiment
Experimental materials: test compounds; HT Universal Chemiluminescent PARP Assay kit (purchased from TREVIGEN); PBS (purchased from Wisent); Triton X-100 (purchased from Macklin); Envision multi-marker analyzer (PerkinElmer).
(I) Preparation of Reagents:
• 1. Washing solution: Triton X-100 was added to 1-fold PBS, and the final concentration of Triton X-100 was 0.1%. • 2. 1-fold PARP buffer: the 20-fold PARP buffer in the kit was subjected to 20-fold dilution with water to prepare a 1-fold PARP buffer. This buffer was used to prepare the compound, enzyme solution and substrate solution. • 3. 1-fold Strep-Diluent solution: the 10-fold Strep-diluent in the kit was subjected to 10-fold dilution with water to prepare a 1-fold Strep-diluent solution.
(II) Preparation of Test Compounds:
Test compounds were serially 5-fold diluted to the 8th concentration with a multichannel pipette, i.e. from 200 μM to 2.56 nM, with the DMSO concentration being 100%. 2 μL of each of the inhibitors at various concentration gradients was added to a compound intermediate plate, and 38 μL of the 1-fold PARP buffer was then added; the two were mixed well for use, and the DMSO concentration was 5%.
(III) Experimental Method:
• a) The 1-fold PARP buffer was added to a test plate at 50 μL per well and incubated at 25° C. for 30 min. • b) After the incubation was completed, the liquid in the test plate was discarded, and each of the compounds at various concentration gradients was pipetted from the compound intermediate plate and added into the test plate at 10 μL per well. A duplicate-well experiment was performed. • c) The test plate was added with the enzyme solution (0.5 IU) at 15 μL per well. The compound and enzyme were incubated together at 25° C. for 10 min. • d) After the incubation was completed, 25 μL of the 1-fold PARP Cocktail (comprising 2.5 μL of 10-fold PARP Cocktail, 2.5 μL of 10-fold Activated DNA and 20 μL of 1-fold PARP buffer) was added to each well of the test plate. The test plate was incubated at 25° C. for 1 h. The final concentration of the compound was 2 μM to 0.0256 nM, and the DMSO concentration was […]. • e) After the incubation was completed, the test plate was washed twice with 200 μL of washing solution per well and then washed twice with 200 μL of PBS per well. • f) Strep-HRP in the kit was subjected to 500-fold dilution with the 1-fold Strep-Diluent solution, added to the test plate at 50 μL per well, and then incubated at 25° C. for 1 h. • g) After the incubation was completed, the test plate was washed twice with 200 μL of washing solution per well and then washed twice with 200 μL of PBS per well.
PeroxyGlow A and B in the kit were mixed at ratio of 1:1, and the mixed solution was added to the test plate at 100 μL per well. Chemiluminescence was immediately read using a PerkinElmer Envision multi-marker analyzer with an integration time of 0.5 s.
Data analysis: the original data was converted to inhibition using the equation (sample−Min)/(Max−Min)×[…], and the IC50 value was then curve filled using four parameters (obtained from the “log(inhibitor) vs. response-variable slope” model in GraphPad Prism).

[3] = target: T2, CYP2C9 (Homo sapiens, UniProt P11712); assay: Inhibition against cytochrome P450 isoenzyme, human liver microsomes; format: in vitro ADME
T2 construct: a human liver microsome solution; from tissue; host or cells: human liver microsomes
T2 sequence (P11712 whole entry): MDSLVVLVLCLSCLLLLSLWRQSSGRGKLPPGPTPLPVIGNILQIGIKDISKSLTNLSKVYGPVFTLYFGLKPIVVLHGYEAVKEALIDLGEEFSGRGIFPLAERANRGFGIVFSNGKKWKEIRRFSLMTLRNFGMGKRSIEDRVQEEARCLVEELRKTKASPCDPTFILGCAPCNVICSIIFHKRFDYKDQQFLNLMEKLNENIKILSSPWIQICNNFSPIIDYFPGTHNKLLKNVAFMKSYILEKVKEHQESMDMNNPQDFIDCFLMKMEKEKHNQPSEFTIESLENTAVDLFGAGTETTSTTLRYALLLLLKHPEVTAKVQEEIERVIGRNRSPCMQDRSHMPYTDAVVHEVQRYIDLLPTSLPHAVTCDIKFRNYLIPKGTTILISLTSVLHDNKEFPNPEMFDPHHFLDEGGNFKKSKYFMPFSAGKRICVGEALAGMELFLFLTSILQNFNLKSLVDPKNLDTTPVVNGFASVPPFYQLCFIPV
Protocol: (§1) Experimental Example 6: Study on Inhibition Against Cytochrome P450 Isoenzyme
(§2) The inhibition of the test compounds against different subtypes of the human cytochrome P450 isoenzyme was determined. Test compounds, a standard inhibitor (100×final concentration) and a mixed substrate working solution were prepared; the microsomes frozen in a refrigerator at −80° C. were taken out and thawed. 2 μL of a solution of the test compound and the standard inhibitor was added to corresponding wells, and 2 μL of a corresponding solvent was added to a non-inhibitor control (NIC) well and a blank control (Blank) well; then, 20 μL of a solution of mixed substrate was added to corresponding wells except for the Blank well (adding 20 μL of PB to the Blank well); a human liver microsome solution (marking the date after use and immediately putting back to a refrigerator) was prepared and then added to all wells at 158 μL per well; the sample plate was put into a 37° C. water bath for pre-incubation, and then a coenzyme factor (NADPH) solution was prepared; after 10 min, the NADPH solution was added to all the wells at 20 μL per well, and the sample plate was shaken to mix the mixture well and then incubated in a 37° C. water bath for 10 min; at corresponding time points, 400 μL of cold acetonitrile solution (internal standard: 200 ng/mL tolbutamide and labetalol) was added to stop the reaction; after being mixed well, the mixture in the sample plate was centrifuged at 4,000 rpm for 20 min to precipitate proteins; 200 μL of supernatant was collected and added into 100 μL of water, and the mixture was mixed well and then assayed by LC/MS/MS.

[4] = target: T3, CYP3A4-M (Homo sapiens, UniProt P08684); assay: as above; format: in vitro ADME
T3 construct: a human liver microsome solution; from tissue; host or cells: human liver microsomes
T3 sequence (P08684 whole entry): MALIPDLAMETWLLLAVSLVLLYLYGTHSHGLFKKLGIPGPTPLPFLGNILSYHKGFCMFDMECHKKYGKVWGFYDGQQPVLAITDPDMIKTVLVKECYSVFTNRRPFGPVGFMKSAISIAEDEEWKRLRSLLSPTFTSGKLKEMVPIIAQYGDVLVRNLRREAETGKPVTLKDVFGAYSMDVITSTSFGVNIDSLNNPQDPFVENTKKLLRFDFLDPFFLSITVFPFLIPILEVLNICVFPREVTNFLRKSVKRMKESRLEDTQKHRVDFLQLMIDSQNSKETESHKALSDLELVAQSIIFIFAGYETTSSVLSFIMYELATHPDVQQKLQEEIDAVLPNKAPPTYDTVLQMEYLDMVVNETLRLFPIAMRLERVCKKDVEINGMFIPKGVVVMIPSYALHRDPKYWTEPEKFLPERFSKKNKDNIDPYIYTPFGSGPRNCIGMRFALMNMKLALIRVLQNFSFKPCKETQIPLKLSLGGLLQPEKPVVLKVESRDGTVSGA
Protocol: as §1, §2

SMILES	Residual content after 60 min of incubation [1]	pIC50 [2]	IC50 [3]	IC50 [4]
O=C1NOCc2c(-c3ccc(C4CCCN4)cc3)[nH]c3cc(F)cc1c23 (single isomer, unassigned) [Example 24_A]	52.3%	8.70	> 50 µM	> 50 µM
CC1(c2ccc(-c3[nH]c4cc(F)cc5c4c3CONC5=O)cc2)CCCN1 (stereo not drawn) [Example 25_A]	40.7%	8.64	> 50 µM	32.9 µM
O=C1NOCc2c(-c3ccc(C4CCCN4)c(F)c3)[nH]c3cccc1c23 (stereo not drawn) [Example 11_A]	57.1%	8.44	> 50 µM	35 µM
CC1(c2ccc(-c3[nH]c4cccc5c4c3CONC5=O)cc2)CCCN1 (stereo not drawn) [Example 6_A]	45.6%	8.55	–	–
CC1(c2ccc(-c3[nH]c4cc(F)cc5c4c3CONC5=O)cc2F)CCCN1 (single isomer, unassigned) [Example 26_A]	57.7%	8.47	49.7 µM	14.1 µM
